# According to US20250287947A1, “BIOCIDES AND ADHESIVE BINDING THEREOF” (EBERHARD KARLS UNIVERSITÄT TÜBINGEN MEDIZINISCHE FAKULTÄT, priority 2022, published 2025):
# What was measured:
# [1] = Influence of pH on state of matter of Py-C12 at 20° C. (Example 1); type: physicochemical; design: key to state of matter: X: liquid; o: solid; details: for solubility in water / state of matter: 1% (w/v); for state of matter: 1% w/v, 20° C.
# From the text: 1% (w/v) 5-N-carboxamido-2-pyrrolidone-N-n-dodecyl propane-1,3-diamine (Py-C12) free base was adjusted with HCl or NaOH to pH values between 3.0 and 10.0.
# [2] = Influence of temperature on the state of matter of Py-C12 at pH 7.0 and pH 9.0 (Example 2); type: physicochemical; design: key to state of matter: X: liquid; o: solid; details: for solubility in water / state of matter: 1% (w/v); for state of matter: 1% w/v
# Protocol: 1% (w/v) 5-N-carboxamido-2-pyrrolidone-N-n-dodecyl propane-1,3-diamine (Py-C12) free base was adjusted with HCl or NaOH to pH values 7.0 and 9.0 and subsequently incubated at temperatures between 2° C. and 60° C. […] (see table 2).
# Aspergillus brasiliensis = assay: Quantitative Suspension Test, modified DIN EN ISO 11930:2019 with organic load; type: cell-based; details: 0.5% (w/v) Py-C12, pH 7.0, organic load, incubation 3 days
# Protocol: (§1) In order to evaluate the bactericidal and fungicidal efficacy of Py-C12, Quantitative Suspension Tests were carried out under dirty conditions according to modified DIN EN ISO 11930:2019 with organic load using incubation periods of one and three days, respectively. For this purpose, 5-N-carboxamido-2-pyrrolidone-N-n-dodecyl propane-1,3-diamine (Py-C12) solutions were adjusted to pH 7.0 with HCl and subsequently diluted to corresponding test concentrations.
# Candida albicans = assay: as above; type: cell-based; details: 0.025% (w/v) Py-C12, pH 7.0, organic load, incubation 1 day
# Protocol: as §1
# Escherichia coli = assay: as above; type: cell-based; details: 0.025% (w/v) Py-C12, pH 7.0, organic load, incubation 1 day
# Protocol: as §1
# Pseudomonas aeruginosa = assay: as above; type: cell-based; details: 0.025% (w/v) Py-C12, pH 7.0, organic load, incubation 1 day
# Protocol: as §1
# Staphylococcus aureus = assay: as above; type: cell-based; details: 0.01% (w/v) Py-C12, pH 7.0, organic load, incubation 1 day
# Protocol: as §1
# [3] = tested on: β-galactosidase-expressing E. coli strain; assay: Wash resistance and biocidal activity of Py-C12 treated cotton textile (Example 6); type: cell-based; details: treated with 1% (w/v) pH 7.0, E. coli 3 days at 37° C.
# Protocol: Round sterile cotton textile samples were treated with a liquid Py-C12 solution (1% (w/v) in water; pH 7.0) followed by intensive washing steps. For controls, samples were treated with water instead of Py-C12.
# For testing wash resistance in an aqueous system samples were incubated in water for 20 h at 50° C. and then washed 16 times with water at 37° C. for 5 to 10 minutes each time.
# For testing wash resistance in an alcoholic/acidic system, samples were washed 8 times with 2-propanol/1 mN HCl solution and 8 times with water in total.
# After all washing steps, all samples were inoculated with a β-galactosidase-expressing E. coli strain and then incubated for 3 days at 37° C.
# [4] = Modulation of the state of matter by pH shift using HCl and NaOH (Example 7); type: physicochemical
# [5] = Modulation of the state of matter by pH shift using CO2 (Example 8); type: physicochemical
# From the text: 1% (w/v) and 5% (w/v) 5-N-carboxamido-2-pyrrolidone-N-n-dodecyl propane-1,3-diamine (Py-C12) free base solutions in water were gassed with carbon dioxide to reduce the pH from 9.5 to 7. […] After degassing of the CO2-gassed solutions, Py-C12 precipitates due to the increasing pH in a time dependent manner (see FIG. 3, right panel).
# [6] = Modulation of the state of matter by salt concentration (Example 9); type: physicochemical; details: 2% (w/v), pH 7 (HCl), NaCl 0.5 M to 3 M in water, room temperature
# From the text: 2% (w/v) 5-N-carboxamido-2-pyrrolidone-N′-n-dodecyl propane-1,3-diamine (Py-C12) was adjusted with HCl to pH 7 and combined with different concentrations of NaCl ranging from 0.5 M to 3 M in water at room temperature. A clearly visible precipitate (white color) is observed at concentrations of 1.5 M or more (see FIG. 4).
# [7] = Modulation of the state of matter by temperature shift (Example 10); type: physicochemical; details: 1% and 5% (w/v) free base in water
# [8] = tested on: β-galactosidase-expressing E. coli strain; assay: Wash resistance and biocidal activity of Py-C12 treated polyester fabric (Example 16); type: cell-based; details: treated with 5% (w/v) free base, E. coli 3 days at 37° C.
# Protocol: In a first step, 5% (w/v) Py-C12 free base in water was warmed to 50° C. to obtain a liquid solution. After incubation with the Py-C12 solution, the samples were cooled to room temperature upon which the liquid Py-C12 was converted into a solid phase and thus immobilized to the material. After drying, samples were washed with water at room temperature 10, 20, and 30 times for 15 minutes each time. Thereafter, all samples were inoculated with a β-galactosidase-expressing E. coli strain and then incubated for 3 days at 37° C.
structure (smiles),measurement,setting,value
"CCCCCCCCCCCCNCCCNC(=O)C1CCC(=O)N1 (centres unmarked) [Py-C12, 5-N-carboxamido-2-pyrrolidone-N′-n-dodecyl propane-1,3-diamine]",solubility in water / state of matter,"[1]; pH values </=7.8, room temperature",completely soluble
same,solubility in water / state of matter,[1]; pH values >/=8,solid substance
same,state of matter,[1]; pH 3.0,X
same,state of matter,[1]; pH 4.0,X
same,state of matter,[1]; pH 5.0,X
same,state of matter,[1]; pH 6.0,X
same,state of matter,[1]; pH 7.0,X
same,state of matter,[1]; pH 7.8,X
same,state of matter,[1]; pH 8.0,o
same,state of matter,[1]; pH 9.0,o
same,state of matter,[1]; pH 10.0,o
same,solubility in water / state of matter,"[2]; pH 7, temperatures between 2° C. and 60° C.",completely soluble
same,solubility in water / state of matter,"[2]; pH 9.0, temperatures between 2° C. and 60° C.",only present in liquid state at the tested temperatures of 50 °C and 60 °C
same,state of matter,"[2]; pH 7.0, 2° C.",X
same,state of matter,"[2]; pH 7.0, 4° C.",X
same,state of matter,"[2]; pH 7.0, 8° C.",X
same,state of matter,"[2]; pH 7.0, 12° C.",X
same,state of matter,"[2]; pH 7.0, 16° C.",X
same,state of matter,"[2]; pH 7.0, 20° C.",X
same,state of matter,"[2]; pH 7.0, 30° C.",X
same,state of matter,"[2]; pH 7.0, 38° C.",X
same,state of matter,"[2]; pH 7.0, 50° C.",X
same,state of matter,"[2]; pH 7.0, 60° C.",X
same,state of matter,"[2]; pH 9.0, 2° C.",o
same,state of matter,"[2]; pH 9.0, 4° C.",o
same,state of matter,"[2]; pH 9.0, 8° C.",o
same,state of matter,"[2]; pH 9.0, 12° C.",o
same,state of matter,"[2]; pH 9.0, 16° C.",o
same,state of matter,"[2]; pH 9.0, 20° C.",o
same,state of matter,"[2]; pH 9.0, 30° C.",o
same,state of matter,"[2]; pH 9.0, 38° C.",o
same,state of matter,"[2]; pH 9.0, 50° C.",X
same,state of matter,"[2]; pH 9.0, 60° C.",X
same,Germ reduction factor log10,Aspergillus brasiliensis,4.6 log10
same,Germ reduction factor log10,Candida albicans,4.2 log10
same,Germ reduction factor log10,Escherichia coli,≥5.5 log10
same,Germ reduction factor log10,Pseudomonas aeruginosa,≥5.6 log10
same,Germ reduction factor log10,Staphylococcus aureus,≥5.6 log10
same,biocidal effect of treated cotton textile after washing,[3]; alcoholic/acidic system: 8 washes 2-propanol/1 mN HCl and 8 with water,completely colonized
same,biocidal effect of treated cotton textile after washing,"[3]; aqueous system: water 20 h at 50° C., then 16 water washes at 37° C.",maintained its biocidal effect
same,solubility in water,"[4]; 1% (w/v) free base adjusted with HCl to pH 7, room temperature",completely soluble
same,state of matter after pH increase,"[4]; 1% (w/v), NaOH added to increase pH above 9.0, time dependent",started to precipitate
same,solubility in water,"[5]; 1% and 5% (w/v) free base gassed with CO2, pH from 9.5 to 7, room temperature",completely soluble
same,state of matter after degassing,"[5]; 1% and 5% (w/v), after degassing of CO2, increasing pH, time dependent",precipitates
same,NaCl concentration at which a clearly visible precipitate is observed,[6],≥ 1.5 M
same,solubility in water,[7]; 50° C.,completely soluble
same,state of matter,[7]; room temperature,readily precipitated
same,bacterial growth on treated polyester fabric after washing,[8]; washed 10 times with water 15 min,unstained
same,bacterial growth on treated polyester fabric after washing,[8]; washed 20 times with water 15 min,unstained
same,bacterial growth on treated polyester fabric after washing,[8]; washed 30 times with water 15 min,Blue coloured bacteria
